According to US10683216B2, “Selective adsorbent fabric for water purification” (Chemica Technologies, Inc., priority 2013, dated 2020):

Tests used:
[1] = Kinetics of adsorption of organic toxins to ACF-H in Standard Synthetic Test Water; conditions: STW, pH 6.9~7.0; for ACF-H 50% (estimated time to achieve designated toxin removal): 50% removal; for ACF-H >95% (estimated time to achieve designated toxin removal): >95% removal
[2] = Kinetics of adsorption of organic toxins to ACF-OH in Standard Synthetic Test Water; conditions: STW, pH 6.9~7.0; for ACF-OH 50% (estimated time to achieve designated toxin removal): 50% removal; for ACF-OH removal reached, in brackets in the >95% column: >95% not reached; for ACF-OH >95% (estimated time to achieve designated toxin removal): >95% removal
[3] = Kinetics of adsorption of organic toxins to ACF-SBX in Standard Synthetic Test Water; conditions: STW, pH 6.9~7.0; for ACF-SBX 50% (estimated time to achieve designated toxin removal): 50% removal; for ACF-SBX >95% (estimated time to achieve designated toxin removal): >95% removal
[4] = Log P (logarithm of measured partition coefficient)

Compound | ACF-H 50% (estimated time to achieve designated toxin removal) [1] | ACF-H >95% (estimated time to achieve designated toxin removal) [1] | ACF-OH 50% (estimated time to achieve designated toxin removal) [2] | ACF-OH removal reached, in brackets in the >95% column [2] | ACF-SBX 50% (estimated time to achieve designated toxin removal) [3] | ACF-SBX >95% (estimated time to achieve designated toxin removal) [3] | logP (physchem) | ACF-OH >95% (estimated time to achieve designated toxin removal) [2] | Log P ([4]; logarithm of measured partition coefficient) | ACF-H removal reached, in brackets in the >95% column ([1]; >95% not reached) | logP [4]
CCCCCCCCCc1ccc(O)cc1 [4-nonylphenol] | 2.0 min | 30.0 min | 57.0 min | (73%) | 5.0 min | 45.0 min | 5.76 |  |  |  | 
CN(C)C(=O)Nc1ccc(Cl)c(Cl)c1 [diuron] | 3.0 min | 15.0 min | 30.0 min |  | 3.0 min | 15.0 min |  | 55.0 min |  |  | 
Clc1ccc(Cl)cc1 [p-dichlorobenzene] | 1.0 min | 2.0 min | 1.0 min |  | 1.0 min | 2.0 min |  | 2.0 min | 3.44 |  | 
O=[N+]([O-])c1ccc(O)cc1 [4-nitrophenol] | 0.8 min | 20.0 min | 5.0 min |  | 1.5 min | 20.0 min |  | 60.0 min |  |  | 
CCc1ccccc1 [ethylbenzene] | 0.3 min |  | 0.3 min |  | 0.3 min |  |  | 0.5 min |  |  | 
CCN(CC)N=O [NDEA, N-nitrosodiethylamine] | 3.8 min |  | 30.0 min | (59%) | 4.6 min | 60.0 min | 0.48 |  |  | (93%) | 
Clc1ccccc1 [chlorobenzene] | 0.3 min | 2.0 min | 0.3 min |  | 0.3 min | 2.0 min |  | 2.0 min |  |  | 
CCOC(=O)c1ccccc1C(=O)OCC [diethyl phthalate] | 5.0 min | 50.0 min | 60.0 min | (69%) | 3.5 min | 25.0 min | 2.42 |  |  |  | 
Cc1ccc(S(=O)(=O)[N-]Cl)cc1.[Na+] [chloramine-T] | 3.3 min | 25.0 min | 50.0 min | (82%) | 3.3 min | 25.0 min |  |  |  |  | 
Brc1c(Br)c(Br)c(Oc2c(Br)c(Br)c(Br)c(Br)c2Br)c(Br)c1Br [deca-BDE, decabromodiphenyl ether] | 0.4 min |  |  |  | 0.5 min |  | 9.97 |  |  |  | 
c1ccc2cc3ccccc3cc2c1 [anthracene] | ^♦0.5 min | 53.0 min | 0.4 min |  | 0.4 min | 12.5 min |  | 30.0 min |  |  | 
CCCCC(CC)COC(=O)c1ccccc1C(=O)OCC(CC)CCCC (stereo not shown) [DEHP, bis(2-ethylhexyl)phthalate] | 20.0 min | 80.0 min | 43.3 min | (92%) | 3.8 min | 20.0 min |  |  |  |  | 7.8
Clc1ccccc1Cl [o-dichlorobenzene] | 1.5 min | 3.0 min | 1.5 min |  | 0.8 min | 3.0 min | 3.38 | 3.0 min |  |  | 
Oc1cc(Cl)ccc1Oc1ccc(Cl)cc1Cl [triclosan] | 2.5 min | 55.0 min | 26.0 min | (91%) | 1.7 min | 46.7 min |  |  |  |  | 4.53
Cc1ccc(O)cc1 [p-cresol] |  |  |  |  |  |  | 1.97 |  |  |  | 
Oc1ccc(Cl)cc1Cl [2,4-dichlorophenol] | 1.5 min | 30.0 min | 2.6 min | (92%) | 2.3 min | 30.0 min | 3.17 |  |  |  | 
CC(C)(c1ccc(O)cc1)c1ccc(O)cc1 [bisphenol A] | 5.0 min | 30.0 min | 45.0 min | (70%) | 4.0 min | 30.0 min | 3.32 |  |  |  | 
O=c1[nH]c(=O)c2[nH]c(=O)[nH]c2[nH]1 [uric acid] | 3.0 min | 30.0 min | 15.0 min |  | 3.0 min | 30.0 min |  | 60.0 min |  |  | -2.92
C[C@]12CC[C@@H]3c4ccc(O)cc4CC[C@H]3[C@@H]1CC[C@@H]2O [17β-estradiol] | 0.5 min | 10.0 min | 0.5 min |  | 0.5 min | 10.0 min |  | 50.0 min |  |  | 
CCNc1nc(Cl)nc(NC(C)C)n1 [atrazine] | 2.0 min | 20.0 min | 6.0 min | (90%) | 1.6 min | 10.0 min | 2.61 |  |  |  | 
